The values below come from US5756491A, “Antiviral cobalt-organic compounds” (priority 1991, dated 1998).

Converted amounts (≈) assume the structure as drawn.

The subject of one experiment is HSV-2. Nature of the experiment: HSV-2 cytopathic effect (CPE) inhibition assay. It is filed as cell-based. The settings on record: Human alphaherpesvirus 2; HSV-2, CPE. The procedure: (§1) Low passage human foreskin fibroblast cells were seeded into 96 well tissue culture plates 24 hours prior to use at a cell concentration of 2.5×10^4 cells per ml in 0.1 ml (MEM) supplemented with 10% fetal bovine serum (FBS). The cells were then incubated for 24 hour at 37° C. in a CO2 incubator. After incubation, the medium was removed and 100 μl of MEM containing 2% FBS was added to all but the first row. In the first row, 125 μl of experimental drug was added in triplicate wells. Medium alone was added to both cell and virus control wells. The drug in the first row of wells was then diluted serially 1:5 throughout the remaining wells by transferring 25 μl using the Cetus Liquid Handling Machine. After dilution of drug, 100 μl of the appropriate virus concentration was added to each well, excluding cell control wells which received 100 μl of MEM. For HSV-1 and HSV-2 assays, the virus concentration utilized was 1000 PFU's per well. For CMV and VZV assays, the virus concentration added was 2500 PFU per well. The plates were then incubated at 37° C. in a CO2 incubator for three days for HSV-1 and HSV-2, 10 days for VZV, or 14 days for CMV. […] The plates were allowed to dry for 24 h and then read on a Skatron Plate Reader at 620 nm.
(§2) I. EC50 values were also determined for each of the viruses tested for known antiviral agents. […]

A further experiment deals with EBV. As to the kind of experiment: EBV IMN assay. Type of experiment: cell-based. The settings on record: human gammaherpesvirus 4, EBV. The procedure:
(§3) I. EC50 values were also determined for each of the viruses tested for known antiviral agents. The comparison compound was ACV for all viruses except for HCMV aherein DHPG was the comparison compound. In Table 26, these comparison EC50 values are indicated with an asterisk. In Table 27, the drug FIAU (2'-fluoro-5-iodo-arabinosyl-uracil) was used as a control.

The test system of experiment [1] is HSV-1. Nature of the experiment: HSV-1 plaque reduction assay. Type of experiment: cell-based. The conditions noted are these: Human alphaherpesvirus 1, read-out: EC50. The procedure:
Two days prior to use, HFF cells are plated into six well plates and incubated at 37° C. with 5% CO2 and 90% humidity. On the date of assay, the drug is made up at twice the desired concentration in 2×MEM and then serially diluted 1:5 in 2×MEM using six concentrations of drug. The initial starting concentration is usually 200 μg/ml down to 0.06 μg/ml. The virus to be used is diluted in MEM containing 10% FBS to a desired concentration which will give 20-30 plaques per well. The media is then aspirated from the wells and 0.2 ml of virus is added to each well in duplicate with 0.2 ml of media being added to drug toxicity wells. The plates are then incubated for one hour with shaking every fifteen minutes. After the incubation period, an equal amount of 1% agarose was added to a equal volume of each drug dilution. This will give final drug concentrations beginning with 100 μg/ml and ending with 0.03 μg/ml and a final agarose overlay concentration of 0.5%. The drug agarose mixture is applied to each well in 2 ml volume and the plates then incubated for three days, after which the cells were stained with a 1.5% solution of neutral red. At the end of 4-6 hr incubation period, the stain is aspirated, and plaques counted using a stereomicroscope at 1×magnification.
(§4) The procedure for the liquid overlay plaque assay is similar to that using the agarose overlay. The procedure for adding the virus is the same as for the regular plaque assay. The drugs are made up in a concentration to be used in MEM with 2% FBS. The drugs are not made up at 2×concentration as in previous assays but are made up at the desired concentration. For HSV-1 and HSV-2 assays, an antibody preparation obtained from Baxter Health Care Corporation is diluted 1:500 and added to the media that the drug is diluted in. For CMV and VZV, no antibody in the overlay is utilized. For the CMV assay, additional medium without new drug is added on day six and allowed to incubate for a total of 11 days. For VZV, additional media is added on day five and incubated for a total of eight days. At the end of the incubation period for all of the assays, the medium is removed, the cells washed and then stained with 0.1% crystal violet solution for ten minutes. The cells are then rinsed several times to remove any excess crystal violet and plaques enumerated using a stereomicroscope.
as §3

A short description of experiment [2]: VZV plaque reduction assay. Type of experiment: cell-based. The conditions noted are these: Human alphaherpesvirus 3, V2V. The method, then:
The procedure is essentially the same as for the HSV plaque assay described above with two exceptions:
1. After addition of the drug, the plates are incubated for ten days.
2. On days three and six an additional 1 ml overlay with equal amounts of 2×MEM and 1% agarose are added.
as §4, with “The cells are then rinsed several times to remove any excess crystal violet and plaques enumerated using a stereomicroscope.” left out
as §2

The test system of experiment [3] is HSV-1. Nature of the experiment: HSV-1 cytopathic effect (CPE) inhibition assay. Type of experiment: cell-based. The conditions noted are these: Human alphaherpesvirus 1; HSV-1, CPE. The procedure:
as §1, §2

Experiment [4] concerns HFF cells. As to the kind of experiment: Cell proliferation assay. The conditions noted are these: rapidly growing cells. It is filed as cell-based, human. The procedure: Twenty-four hours prior to assay, HFF cells are seeded in 6-well plates at a concentration of 2.5×10^4 cells per well in MEM containing 10% FBS. On the day of the assay, drugs are diluted serially in MEM containing 10% FBS at increments of 1:5 covering a range from 100 μg/ml to 0.03 μg/ml. […] The media from the wells is then aspirated and 2 ml of each drug concentration is then added to each well. The cells are then incubated in a Co2 incubator at 37° C. for 72 h. At the end of this time, the media-drug solution is removed and the cells washed. […] The cell-media mixture is then pipetted up and down vigorously to break up the cell suspension and 0.2 ml of the mixture is added to 9.8 ml of Isoton III and counted using a Coulter Counter. Each sample is counted three times with three replicate wells per sample.

Experiment [5] deals with HFF cells. As to the kind of experiment: Neutral red uptake toxicity. The settings on record: stationary cells. It is filed as cell-based, human.
Experiment [6] relates to HFF cells. As to the kind of experiment: MTT assay for cell cytotoxicity. Type of experiment: cell-based, human. The conditions noted are these: stationary cells. The method, then: Twenty-four hours prior to assay, HFF cells are plated into 96 well plates at a concentration of […] cells per well. After 24 h, the media is aspirated and […] of drug is added to the first row of wells and then diluted serially 1:5 using the automated Cetus Liquid Handling System in a manner similar to that used in the CPE assay. The plates are then incubated in a CO2 incubator at 37° C. for seven days. At this time, each well receives 50 microliters of […] solution of MTT in Dulbecco's Phosphate Buffered Saline. The plates are then incubated for an additional four hours. At this time, the media is removed and replaced with 100 μl of 0.04N hydrochloric acid in isopropanol. After shaking briefly, the plates are then read on a plate reader at 550 nm.

For the compound `Nc1nc2c(ncn2COCCO)c(=O)[nH]1` [ACV], the EC50 with HSV-2 was 0.7 µg/mL (≈ 3.11 µM); in the experiment with EBV it was 5.8 µg/mL (≈ 25.8 µM); in the experiment on HSV-1 [1] it was 0.2 µg/mL (≈ 0.888 µM); in experiment [2], 3.2 µg/mL (≈ 14.2 µM); with HSV-1 [3], 0.2 µg/mL (≈ 0.888 µM).
For the compound `CC1=[N+]2CC[N+]3=C(C)C=C(c4ccccc4)[O][Co-3]23([NH3+])([NH3+])[O]C(c2ccccc2)=C1.[Cl-]` [Compound 64], the “toxicity IC50, cell proliferation” value in the experiment with HFF cells [4] was 38 MCG/ML. Also, the “toxicity IC50, neutral red uptake” value in the experiment on HFF cells [5] is 15.2 MCG/ML. Further, in the experiment on HFF cells [6], the “toxicity IC50, MTT toxicity” value is reported as 53 MCG/ML.
The matching figures for `CC1=C(Cl)C(C)=[N+]2CC[N+]3=C(C)C(Cl)=C(C)[O][Co-3]23([NH3+])([NH3+])[O]1.[Cl-]` [Compound 67]: 12.0 MCG/ML, 12.1 MCG/ML and 42.0 MCG/ML.
